Assay results as given in patent US20250108001A1, “TOPICAL OCULAR ADMINISTRATION OF AMBROXOL FOR OCULAR PAIN” (NeuVision Development LLC, priority 2022, published 2025).
Each block holds one molecule with its values, some of them ahead of it.

Columns and labels:
rat NOP models = assay: Rat eye-wipe assay, Epi-off ocular pain model, 2M NaCl challenge; assay type: in vivo
Excerpt: With minor modification of established rat NOP models, ocular pain was created by removing corneal epithelium (Epi-off) under general anesthesia. 2M NaCl saline (in contrast to 5M NaCl used in previous studies) was used to trigger peripheral neuronal excitement in response to hyperosmolarity while minimizing the potential inherent irritancy to the cornea from 5M NaCl. Then, one hour was given to each rat to allow complete recovery from anesthesia before proceeding to subsequent study steps. […] Due to its short duration of action, a proparacaine group was not included in this study (FIG. 2). The rat eye-wipe assay is an established animal behavioral and neurophysiological tool for the assessment of corneal sensitivity to noxious stimuli (Price T J, et al., Br. J. Pharmacol.). Increased corneal sensitivity was shown in male rats following lacrimal gland excision which correlates with eye wiping behaviors in response to hypertonic saline (5M NaCl) (Meng I D, et al., Invest. Ophthalmol. Vis. Sci. 2015).

Nav1.8 nociceptor = Nav1.8 nociceptor (Homo sapiens, UniProt Q9Y5Y9); conditions: versus lidocaine; cited from earlier work
Chain of Nav1.8 nociceptor (Q9Y5Y9 whole entry): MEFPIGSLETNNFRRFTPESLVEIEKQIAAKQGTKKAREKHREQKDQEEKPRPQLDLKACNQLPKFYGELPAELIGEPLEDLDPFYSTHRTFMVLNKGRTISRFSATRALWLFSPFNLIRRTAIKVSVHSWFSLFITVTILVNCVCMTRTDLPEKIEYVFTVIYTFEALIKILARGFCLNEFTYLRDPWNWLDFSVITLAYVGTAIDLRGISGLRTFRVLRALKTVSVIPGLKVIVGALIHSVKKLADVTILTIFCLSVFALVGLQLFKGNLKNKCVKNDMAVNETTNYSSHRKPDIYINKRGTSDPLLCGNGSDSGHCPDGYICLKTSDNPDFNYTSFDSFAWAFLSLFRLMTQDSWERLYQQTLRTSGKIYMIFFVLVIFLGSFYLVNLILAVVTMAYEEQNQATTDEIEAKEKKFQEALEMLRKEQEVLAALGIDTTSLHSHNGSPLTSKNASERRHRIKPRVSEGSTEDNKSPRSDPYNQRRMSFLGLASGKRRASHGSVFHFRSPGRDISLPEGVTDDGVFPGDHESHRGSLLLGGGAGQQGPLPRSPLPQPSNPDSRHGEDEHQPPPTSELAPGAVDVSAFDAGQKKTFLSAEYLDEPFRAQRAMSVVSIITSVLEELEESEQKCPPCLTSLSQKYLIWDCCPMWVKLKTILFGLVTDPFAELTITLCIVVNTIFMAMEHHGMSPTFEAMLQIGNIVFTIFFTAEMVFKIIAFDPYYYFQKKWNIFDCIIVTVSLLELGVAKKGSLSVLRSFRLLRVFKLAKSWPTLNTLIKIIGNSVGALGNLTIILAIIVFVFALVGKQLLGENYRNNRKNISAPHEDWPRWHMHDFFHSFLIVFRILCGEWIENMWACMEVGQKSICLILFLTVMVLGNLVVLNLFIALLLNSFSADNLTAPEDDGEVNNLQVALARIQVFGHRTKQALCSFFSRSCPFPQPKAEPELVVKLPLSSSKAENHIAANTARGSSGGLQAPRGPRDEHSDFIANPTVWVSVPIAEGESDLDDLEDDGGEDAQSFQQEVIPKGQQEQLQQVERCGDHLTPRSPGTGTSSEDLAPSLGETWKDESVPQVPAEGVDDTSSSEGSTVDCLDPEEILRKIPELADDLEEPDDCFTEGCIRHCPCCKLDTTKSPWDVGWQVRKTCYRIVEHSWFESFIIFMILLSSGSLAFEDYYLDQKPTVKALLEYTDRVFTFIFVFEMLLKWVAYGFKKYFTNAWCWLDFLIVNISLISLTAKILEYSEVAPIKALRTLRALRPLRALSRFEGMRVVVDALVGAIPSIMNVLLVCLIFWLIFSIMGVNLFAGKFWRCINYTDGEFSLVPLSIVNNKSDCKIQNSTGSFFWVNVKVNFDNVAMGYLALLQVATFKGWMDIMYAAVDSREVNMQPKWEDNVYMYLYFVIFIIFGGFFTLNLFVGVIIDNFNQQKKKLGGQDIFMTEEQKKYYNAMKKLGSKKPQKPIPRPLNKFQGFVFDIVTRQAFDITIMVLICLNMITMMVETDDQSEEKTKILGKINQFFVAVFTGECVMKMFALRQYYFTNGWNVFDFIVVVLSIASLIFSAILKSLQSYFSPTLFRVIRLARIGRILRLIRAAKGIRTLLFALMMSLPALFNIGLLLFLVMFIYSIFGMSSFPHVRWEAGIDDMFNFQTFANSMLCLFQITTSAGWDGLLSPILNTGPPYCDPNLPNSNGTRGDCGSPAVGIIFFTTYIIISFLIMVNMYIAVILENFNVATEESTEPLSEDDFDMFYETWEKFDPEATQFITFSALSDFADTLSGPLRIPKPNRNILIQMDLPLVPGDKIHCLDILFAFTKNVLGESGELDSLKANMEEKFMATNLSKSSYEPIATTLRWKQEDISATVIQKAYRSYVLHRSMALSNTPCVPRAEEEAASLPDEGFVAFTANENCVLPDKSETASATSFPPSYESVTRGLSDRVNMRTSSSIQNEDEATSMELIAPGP

eyes of rats = assay: Corneal sensation by Cochet-Bonnet esthesiometer after one topical drop in rats; conditions: rat eye; for minimum total corneal sensation preserved: at maximal effect (5-15 minutes), tactile sensation
Nav1.7 nociceptor = Nav1.7 nociceptor (Homo sapiens, UniProt Q15858); conditions: versus lidocaine; cited from earlier work
Chain of Nav1.7 nociceptor (Q15858 whole entry): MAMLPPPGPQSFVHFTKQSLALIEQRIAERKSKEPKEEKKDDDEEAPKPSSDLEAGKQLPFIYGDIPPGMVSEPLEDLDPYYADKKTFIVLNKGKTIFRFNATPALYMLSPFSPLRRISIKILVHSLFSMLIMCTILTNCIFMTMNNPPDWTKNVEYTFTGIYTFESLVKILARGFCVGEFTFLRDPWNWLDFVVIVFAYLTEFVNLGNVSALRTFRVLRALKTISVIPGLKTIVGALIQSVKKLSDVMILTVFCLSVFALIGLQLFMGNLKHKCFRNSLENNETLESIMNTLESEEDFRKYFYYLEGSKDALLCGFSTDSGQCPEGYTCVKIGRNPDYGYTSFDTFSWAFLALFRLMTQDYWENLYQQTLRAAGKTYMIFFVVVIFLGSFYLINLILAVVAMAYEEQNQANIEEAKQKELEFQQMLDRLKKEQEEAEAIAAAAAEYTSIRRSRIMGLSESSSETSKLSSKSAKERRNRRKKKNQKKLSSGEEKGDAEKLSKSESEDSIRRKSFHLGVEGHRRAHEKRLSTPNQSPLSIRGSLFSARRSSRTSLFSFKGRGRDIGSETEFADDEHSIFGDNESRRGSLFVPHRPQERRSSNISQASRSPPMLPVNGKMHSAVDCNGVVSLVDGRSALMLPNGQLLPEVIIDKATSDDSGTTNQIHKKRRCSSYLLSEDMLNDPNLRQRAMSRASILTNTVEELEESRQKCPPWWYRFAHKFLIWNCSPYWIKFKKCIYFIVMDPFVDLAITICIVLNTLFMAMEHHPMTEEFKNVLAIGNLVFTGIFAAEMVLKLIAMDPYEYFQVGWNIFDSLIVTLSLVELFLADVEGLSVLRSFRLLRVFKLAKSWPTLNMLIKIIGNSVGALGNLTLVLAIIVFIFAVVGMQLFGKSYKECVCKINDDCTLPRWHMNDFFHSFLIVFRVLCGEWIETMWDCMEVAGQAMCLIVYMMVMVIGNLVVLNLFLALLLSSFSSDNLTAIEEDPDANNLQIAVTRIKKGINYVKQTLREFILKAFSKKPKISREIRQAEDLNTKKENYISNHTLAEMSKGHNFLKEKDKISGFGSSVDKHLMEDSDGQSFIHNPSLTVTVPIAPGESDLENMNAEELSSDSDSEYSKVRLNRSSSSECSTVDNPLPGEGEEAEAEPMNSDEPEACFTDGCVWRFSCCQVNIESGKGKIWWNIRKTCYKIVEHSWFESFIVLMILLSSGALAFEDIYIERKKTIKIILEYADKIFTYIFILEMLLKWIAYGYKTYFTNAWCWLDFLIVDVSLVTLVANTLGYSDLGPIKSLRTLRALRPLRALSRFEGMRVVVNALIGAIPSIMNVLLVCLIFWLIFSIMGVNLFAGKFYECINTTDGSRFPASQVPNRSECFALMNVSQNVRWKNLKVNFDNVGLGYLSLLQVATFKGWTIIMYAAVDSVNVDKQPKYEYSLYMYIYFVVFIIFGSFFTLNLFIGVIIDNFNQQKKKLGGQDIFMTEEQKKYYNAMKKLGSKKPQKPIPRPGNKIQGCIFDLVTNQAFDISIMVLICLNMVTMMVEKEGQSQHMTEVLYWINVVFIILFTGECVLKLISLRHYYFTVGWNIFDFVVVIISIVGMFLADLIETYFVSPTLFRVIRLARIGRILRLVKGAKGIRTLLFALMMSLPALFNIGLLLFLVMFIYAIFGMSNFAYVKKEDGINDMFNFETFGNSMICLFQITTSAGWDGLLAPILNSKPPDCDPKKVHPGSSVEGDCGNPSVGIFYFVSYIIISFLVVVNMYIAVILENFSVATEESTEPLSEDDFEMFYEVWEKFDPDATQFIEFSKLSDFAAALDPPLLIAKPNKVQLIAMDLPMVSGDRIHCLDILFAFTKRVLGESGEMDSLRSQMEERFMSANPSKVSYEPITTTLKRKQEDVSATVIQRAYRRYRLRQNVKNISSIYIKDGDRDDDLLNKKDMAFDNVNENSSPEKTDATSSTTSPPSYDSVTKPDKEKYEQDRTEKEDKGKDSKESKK

cornea = conditions: topical 0.1%, humans; cited from earlier work
[1] = single drop 0.5% ambroxol, Epi-off rats, 2M NaCl
[2] = 0.3% and 0.5% ambroxol HCl solutions

- sensitivity to hyperosmolarity at the ocular surface (rat NOP models; [1]): obviously preserved
Structure (SMILES): Nc1c(Br)cc(Br)cc1CN[C@H]1CC[C@H](O)CC1 [ambroxol, trans-4-(2-Amino-3,5-dibrombenzylamino)-cyclohexanol]
- time of maximal effect in eye-wipe assay (rat NOP models; 0.5% ambroxol-containing formulation, after administration): up to 30 min
- duration of reduction in eye wiping count/min (rat NOP models; [1]): at least 4 hours
- eye wiping count/min in response to 2M NaCl (rat NOP models; single drop 0.5% ambroxol, Epi-off rats, versus carrier buffer control): significant reduction
- potency in binding the Nav1.8 nociceptor relative to lidocaine (Nav1.8 nociceptor): 40 times
- potency of Nav1.8 block relative to lidocaine (Nav1.8 nociceptor): approximately 40 times
- minimum total corneal sensation preserved (eyes of rats; 0.3% ambroxol HCl solution): ≥ 15%
- duration of drug action on corneal sensation (eyes of rats; [2]): about 4 hours
- time of maximal effect on corneal sensation (eyes of rats; [2]): 5 to 15 min
- minimum total corneal sensation preserved (eyes of rats; 0.5% ambroxol HCl solution): ≥ 15%
- binding affinity for the Nav1.7 nociceptor relative to lidocaine (Nav1.7 nociceptor): same level

Structure (SMILES): O=C(O)Cc1ccccc1Nc1c(Cl)cccc1Cl [diclofenac]
- cornea anesthetic effect (cornea): does not have clinically significant cornea anesthetic effect

Structure (SMILES): CCCOc1ccc(C(=O)OCCN(CC)CC)cc1N [proparacaine]
- change in eye wiping counts before (Epi-on) and after surgery (Epi-off) (rat NOP models; 0.5% proparacaine HCl, at its maximal effect (5 min), data not shown): no significant change
- corneal sensor network block (FIG. 1) (eyes of rats; 0.5% proparacaine): completely blocked
